The target of data set [1] is T1, Solute carrier organic anion transporter family member 1B3 (Homo sapiens, UniProt Q9NPD5).
T1 sequence (Q9NPD5 whole entry): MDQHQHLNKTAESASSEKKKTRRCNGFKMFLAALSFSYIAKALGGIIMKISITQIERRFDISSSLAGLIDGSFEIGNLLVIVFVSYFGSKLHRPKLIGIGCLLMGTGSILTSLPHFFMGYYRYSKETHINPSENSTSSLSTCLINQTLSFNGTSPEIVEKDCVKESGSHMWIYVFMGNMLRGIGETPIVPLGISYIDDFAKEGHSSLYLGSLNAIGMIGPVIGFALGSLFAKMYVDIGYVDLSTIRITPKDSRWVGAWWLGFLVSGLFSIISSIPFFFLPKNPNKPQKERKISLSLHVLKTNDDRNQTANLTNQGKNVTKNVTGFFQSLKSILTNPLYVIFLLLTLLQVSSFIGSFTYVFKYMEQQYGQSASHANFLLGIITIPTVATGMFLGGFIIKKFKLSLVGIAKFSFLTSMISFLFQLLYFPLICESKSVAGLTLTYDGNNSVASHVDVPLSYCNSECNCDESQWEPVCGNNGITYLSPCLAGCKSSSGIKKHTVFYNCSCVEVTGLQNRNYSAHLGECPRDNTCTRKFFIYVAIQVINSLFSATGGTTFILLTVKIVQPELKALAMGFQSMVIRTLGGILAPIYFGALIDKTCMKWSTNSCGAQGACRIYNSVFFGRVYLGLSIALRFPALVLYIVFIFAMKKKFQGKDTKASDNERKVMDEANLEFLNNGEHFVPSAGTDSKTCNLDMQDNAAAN
Nature of the data set: Inhibition of human liver OATP1B3 expressed in HEK293 Flp-In cells assessed as reduction in [3H]E17-betaG uptake at 20 uM incubated for 5 mins by scintillation counting. Particulars: hek293, 5 min.

The target in data set [2] is T2, Solute carrier organic anion transporter family member 1B1 (Homo sapiens, UniProt Q9Y6L6).
T2 sequence (Q9Y6L6 whole entry): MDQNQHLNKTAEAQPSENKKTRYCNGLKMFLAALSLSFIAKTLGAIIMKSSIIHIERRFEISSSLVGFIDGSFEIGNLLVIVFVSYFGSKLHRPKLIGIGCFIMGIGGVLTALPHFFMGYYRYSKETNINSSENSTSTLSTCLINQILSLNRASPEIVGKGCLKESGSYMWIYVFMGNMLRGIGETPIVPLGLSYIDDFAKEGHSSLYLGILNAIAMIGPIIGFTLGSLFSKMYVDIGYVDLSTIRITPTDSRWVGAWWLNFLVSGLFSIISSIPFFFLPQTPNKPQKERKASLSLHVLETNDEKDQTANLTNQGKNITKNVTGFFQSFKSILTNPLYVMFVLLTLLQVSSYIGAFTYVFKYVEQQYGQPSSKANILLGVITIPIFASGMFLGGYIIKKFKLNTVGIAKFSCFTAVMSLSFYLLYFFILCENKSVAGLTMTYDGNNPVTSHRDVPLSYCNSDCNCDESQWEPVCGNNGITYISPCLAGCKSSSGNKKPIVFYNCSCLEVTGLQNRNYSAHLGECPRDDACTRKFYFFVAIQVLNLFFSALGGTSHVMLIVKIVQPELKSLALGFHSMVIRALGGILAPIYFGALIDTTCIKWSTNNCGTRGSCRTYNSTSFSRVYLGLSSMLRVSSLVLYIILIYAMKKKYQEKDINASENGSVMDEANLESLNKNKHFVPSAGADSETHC
As to the kind of experiment: Inhibition of human liver OATP1B1 expressed in HEK293 Flp-In cells assessed as reduction in E17-betaG uptake at 20 uM by scintillation counting. Particulars: hek293, 20 µM.

Data set [3] concerns the target T3, Solute carrier organic anion transporter family member 2B1 (Homo sapiens, UniProt O94956).
T3 sequence (O94956 whole entry): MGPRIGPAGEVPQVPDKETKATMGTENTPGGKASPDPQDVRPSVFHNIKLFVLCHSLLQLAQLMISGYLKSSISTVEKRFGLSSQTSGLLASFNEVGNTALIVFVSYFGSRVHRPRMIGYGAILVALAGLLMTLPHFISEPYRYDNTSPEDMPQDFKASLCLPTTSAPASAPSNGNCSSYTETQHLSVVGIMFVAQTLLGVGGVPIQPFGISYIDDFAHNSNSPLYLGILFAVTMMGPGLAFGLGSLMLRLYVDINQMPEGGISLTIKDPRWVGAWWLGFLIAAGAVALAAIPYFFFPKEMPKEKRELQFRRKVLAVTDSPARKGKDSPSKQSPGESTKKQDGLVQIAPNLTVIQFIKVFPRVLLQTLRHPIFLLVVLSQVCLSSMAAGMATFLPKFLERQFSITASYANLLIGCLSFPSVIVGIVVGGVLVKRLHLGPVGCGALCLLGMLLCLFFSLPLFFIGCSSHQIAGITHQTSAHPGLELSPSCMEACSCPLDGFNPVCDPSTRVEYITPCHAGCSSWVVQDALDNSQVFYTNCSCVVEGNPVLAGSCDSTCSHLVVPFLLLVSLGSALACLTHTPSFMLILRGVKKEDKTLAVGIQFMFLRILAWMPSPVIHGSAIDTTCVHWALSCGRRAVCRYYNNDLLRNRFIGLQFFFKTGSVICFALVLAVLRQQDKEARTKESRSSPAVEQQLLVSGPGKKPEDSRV
Nature of the data set: Inhibition of human liver OATP2B1 expressed in HEK293 Flp-In cells assessed as reduction in [3H]E3S uptake at 20 uM incubated for 5 mins by scintillation counting. Particulars: hek293, 5 min.

Consider `O=c1c(O)c(-c2ccc(O)c(O)c2)oc2cc(O)cc(O)c12` [QUERCETIN], for which the results for the INH in data set [1], in data set [2] and in data set [3] were 21.6%, 77% and 72.6%, respectively.

Turning to `CC(C)NCC(O)c1ccc(NS(C)(=O)=O)cc1` (stereo not drawn) [SOTALOL], the INH came to 6.6% in data set [1], 46.4% in data set [2] and 19% in data set [3].

For the compound `CCCCNC(=O)NS(=O)(=O)c1ccc(C)cc1` [TOLBUTAMIDE], the INH amounted to 5.8% in data set [1], 9.1% in data set [2] and 15.5% in data set [3].

As to `O=c1c(O)c(-c2ccc(O)cc2O)oc2cc(O)cc(O)c12` [MORIN], the INH was found to be 78.5% in data set [1], 85.2% in data set [2] and 71.3% in data set [3].

Turning to `NC(=O)N1c2ccccc2C=Cc2ccccc21` [CARBAMAZEPINE], the INH in data set [1] amounted to 23.2%; in data set [2] it was 13.3%; in data set [3], 17.3%.

Take `COc1ccc2c3c([nH]c2c1)[C@H](CC(C)C)N1C(=O)[C@H](CCC(=O)OC(C)(C)C)NC(=O)[C@@H]1C3`: the INH in data set [1] was determined as 24.2%; in data set [2], 59.3%; in data set [3], 78.8%.

As for `CN(Cc1cnc2nc(N)nc(N)c2n1)c1ccc(C(=O)N[C@@H](CCC(=O)O)C(=O)O)cc1` [METHOTREXATE], the INH in data set [1] is 17.2%; in data set [2], 27.4%; in data set [3], -13.4%.

In the case of `CN(C)CC/C=C1/c2ccccc2Sc2ccc(Cl)cc21` [CHLORPROTHIXENE], the INH in data set [1] was -6.9%; in data set [2], 24%; in data set [3], 26.6%.

As to `COc1ccccc1OCC(O)CN1CCN(CC(=O)Nc2c(C)cccc2C)CC1` (stereo not drawn) [RANOLAZINE], the INH was -14.9% in data set [1], 4.3% in data set [2] and 41.6% in data set [3].

Turning to `CCOc1cc(CC(=O)N[C@@H](CC(C)C)c2ccccc2N2CCCCC2)ccc1C(=O)O` [REPAGLINIDE], the figures for the INH in data set [1], in data set [2] and in data set [3] were 83.2%, 88.4% and 42.2%, respectively.

Turning to `CN(C)CCCN1c2ccccc2CCc2ccccc21` [IMIPRAMINE], the INH was -2.4% in data set [1], 26.9% in data set [2] and 16.9% in data set [3].

With `CCCC1O[C@@H]2C[C@H]3[C@@H]4CCC5=CC(=O)C=C[C@]5(C)[C@H]4[C@@H](O)C[C@]3(C)[C@]2(C(=O)CO)O1` (stereo partly drawn) [BUDESONIDE], the INH in data set [1] is recorded as 79%; in data set [2], 73.2%; in data set [3], 30.3%.

Regarding `CN1C(C(=O)Nc2ccccn2)=C(O)c2ccccc2S1(=O)=O` [PIROXICAM], the figures for the INH in data set [1], in data set [2] and in data set [3] were 23.5%, 16.2% and 68.3%, respectively.

With `NC12CC3CC(CC(C3)C1)C2` [AMANTADINE], the INH turned out to be 10% in data set [1], 26.4% in data set [2] and 17% in data set [3].

In the case of `Nc1ccc(C(=O)NCC(=O)O)cc1` [AMINOHIPPURIC ACID], the values for the INH in data set [1], in data set [2] and in data set [3] were 23.7%, 30.1% and 27.4%, respectively.

On to `CSc1ccc2c(c1)N(CCC1CCCCN1C)c1ccccc1S2` (stereo not drawn) [THIORIDAZINE], for which the INH is on record as 25.2% in data set [1], 26.1% in data set [2] and 21.5% in data set [3].

For the compound `CC1(C)[C@@H](O[C@H]2O[C@H](C(=O)O)[C@@H](O)[C@H](O)[C@H]2O[C@@H]2O[C@H](C(=O)O)[C@@H](O)[C@H](O)[C@H]2O)CC[C@]2(C)[C@H]3C(=O)C=C4[C@@H]5C[C@@](C)(C(=O)O)CC[C@]5(C)CC[C@@]4(C)[C@]3(C)CC[C@@H]12` [GLYCYRRHIZIN], the INH in data set [1] is 90.9%; in data set [2] it was 65.8%; in data set [3] it was 28.7%.

`COCCc1ccc(OCC(O)CNC(C)C)cc1` (stereo not drawn) [METOPROLOL]: the INH came to 19.8% in data set [1], 28.1% in data set [2] and 30.5% in data set [3].

For the compound `COc1c2occc2cc2ccc(=O)oc12` [METHOXSALEN], the INH in data set [1] is 8.9%; in data set [2], 38.1%; in data set [3], -1.6%.

Consider `CC(NCCC(c1ccccc1)c1ccccc1)c1ccccc1` (stereo not drawn) [FENDILINE], for which the INH in data set [1] is 20.4%; in data set [2] it was 15%; in data set [3], -118.7%.

For the compound `COc1ccc2c(c1)c(CC(=O)O)c(C)n2C(=O)c1ccc(Cl)cc1` [INDOMETHACIN], the INH is 48.6% in data set [1], 88.6% in data set [2] and -82.4% in data set [3].

Regarding `CC(C)CN(C[C@@H](O)[C@H](Cc1ccccc1)NC(=O)O[C@H]1CCOC1)S(=O)(=O)c1ccc(N)cc1`, the INH is reported as 16.3% in data set [1], 79.3% in data set [2] and -3.4% in data set [3].

As for `Cc1c(O)cccc1C(=O)N[C@@H](CSc1ccccc1)[C@H](O)CN1C[C@H]2CCCC[C@H]2C[C@H]1C(=O)NC(C)(C)C`, the INH in data set [1] was 59.3%; in data set [2], 71.3%; in data set [3], 50%.

For NYSTATIN, the results for the INH in data set [1], in data set [2] and in data set [3] were 74.9%, 69.3% and 23.4%, respectively.

Turning to `CN/C(=N/CCSCc1nc[nH]c1C)NC#N` [CIMETIDINE], the figures for the INH in data set [1], in data set [2] and in data set [3] were 24.8%, 40.3% and -6.2%, respectively.

As for `CCC1(c2ccccc2)C(=O)NC(=O)NC1=O` [PHENOBARBITAL], the INH in data set [1] is reported as 7.3%; in data set [2], -3.9%; in data set [3], 11%.

As for `COC(=O)C1=C(C)NC(C)=C(C(=O)OCCN(C)Cc2ccccc2)C1c1cccc([N+](=O)[O-])c1` (stereo not drawn) [NICARDIPINE], the figures for the INH in data set [1], in data set [2] and in data set [3] were 10.1%, 65.1% and 31.8%, respectively.

Turning to `CCc1oc2ccccc2c1C(=O)c1cc(Br)c(O)c(Br)c1` [BENZBROMARONE], the INH is listed as 19.5% in data set [1], 86.6% in data set [2] and 76.3% in data set [3].

Take `CN(C)CCCN1c2ccccc2Sc2ccc(Cl)cc21` [CHLORPROMAZINE]: the INH in data set [1] came out at 22.8%; in data set [2], 27.1%; in data set [3] it was 4.3%.

As to `Cn1c(=O)c2[nH]cnc2n(C)c1=O.O` [THEOPHYLLINE], the results for the INH in data set [1], in data set [2] and in data set [3] were 2.5%, 0.8% and -25.5%, respectively.

As for `CC(C)NCC(O)COc1cccc2ccccc12` (stereo not drawn) [PROPRANOLOL], the INH in data set [1] came to 12.8%; in data set [2] it was 8.9%; in data set [3], 10.1%.

The values above are taken from ChEMBL document CHEMBL2163248, “Classification of inhibitors of hepatic organic anion transporting polypeptides (OATPs): influence of protein expression on drug-drug interactions” (J Med Chem, 2012).
